# Test results: patent US20220081412A1, “QUINOLINYL-PYRAZINE-CARBOXAMIDE COMPOUNDS AND USES THEREOF” (The Regents of the University of Michigan, priority 2018, published 2022)
# Tested on: MIA PaCa-2 cells
# Test: Bru-seq analysis for nascent RNA synthesis (log2FC of genes, GSEA gene sets)
# Format: cell-based, human
# Conditions: 4 h
# [1] = PYEON_CANCER_HEAD_AND_NECK_VS_CERVICAL_UP, C2, downregulated
# [2] = RIGGINS_TAMOXIFEN_RESISTANCE_DN, C2, downregulated
# [3] = SCHLOSSER_MYC_TARGETS_AND_SERUM_RESPONSE_DN, C2, downregulated
# [4] = SENGUPTA_NASOPHARYNGEAL_CARCINOMA_UP, C2, downregulated
# [5] = SENGUPTA_NASOPHARYNGEAL_CARCINOMA_WITH_LMP1_UP, C2, downregulated
# [6] = SHEN_SMARCA2_TARGETS_UP, C2, downregulated
# [7] = TAKEDA_TARGETS_OF_NUP98_HOXA9_FUSION_3D_UP, C2, downregulated
# [8] = TAKEDA_TARGETS_OF_NUP98_HOXA9_FUSION_6HR_UP, C2, downregulated
# [9] = TCANNTGAY_SREBP1_01, TFBT, upregulated
# [10] = TGANNYRGCA_TCF11MAFG_01, TFBT, upregulated
# [11] = TTTNNANAGCYR_UNKNOWN, TFBT, upregulated
# [12] = YANG_BREAST_CANCER_ESR1_LASER_DN, C2, downregulated
# [13] = ZHANG_BREAST_CANCER_PROGENITORS_UP, C2, downregulated
# [14] = ZHANG_TLX_TARGETS_36HR_DN, C2, downregulated
# [15] = ZHANG_TLX_TARGETS_DN, C2, downregulated
# [16] = ZHENG_BOUND_BY_FOXP3, C2, downregulated
# [17] = top upregulated noncoding genes, MIA PaCa-2 cells
# [18] = top upregulated protein-coding genes, MIA PaCa-2 cells
smiles,measurement,setting,value
"Cc1cc(NC(=O)c2cnc(N3CCNCC3)cn2)c2ncccc2c1 [J28, N-(6-methylquinolin-8-yl)-5-(piperazin-1-yl)pyrazine-2-carboxamide]",ES,"OCT1Q5_01, TFBT, upregulated",0.383
same,NES,"OCT1Q5_01, TFBT, upregulated",1.568
same,ES,"PEA3_Q6, TFBT, upregulated",0.389
same,NES,"PEA3_Q6, TFBT, upregulated",1.645
same,log2FC,"PHLDB2, downregulated protein-coding gene",−0.93
same,log2FC,"PTX3, downregulated protein-coding gene",−1.04
same,ES,[1],−0.405
same,NES,[1],−1.998
same,ES,[2],−0.420
same,NES,[2],−1.996
same,log2FC,"RNVU1-6, downregulated noncoding gene",−1.29
same,ES,[3],−0.485
same,NES,[3],−1.909
same,ES,[4],−0.477
same,NES,[4],−2.454
same,ES,[5],−0.503
same,NES,[5],−2.612
same,ES,[6],−0.402
same,NES,[6],−2.248
same,log2FC,"SLCO1B3, downregulated protein-coding gene",−0.96
same,log2FC,"SPTY2D1-AS1, downregulated protein-coding gene",−0.93
same,ES,"SREBP1_01, TFBT, upregulated",0.417
same,NES,"SREBP1_01, TFBT, upregulated",1.757
same,ES,"SREBP1_Q6, TFBT, upregulated",0.386
same,NES,"SREBP1_Q6, TFBT, upregulated",1.611
same,ES,"SRF_01, TFBT, upregulated",0.541
same,NES,"SRF_01, TFBT, upregulated",1.708
same,log2FC,"SRRM1P2, downregulated noncoding gene",−0.97
same,ES,[7],−0.469
same,NES,[7],−1.940
same,ES,[8],−0.667
same,NES,[8],−2.252
same,ES,[9],0.399
same,NES,[9],1.843
same,log2FC,"TEX15, downregulated protein-coding gene",−0.95
same,ES,[10],0.359
same,NES,[10],1.552
same,ES,[11],0.502
same,NES,[11],1.859
same,log2FC,"TXNRD3NB, downregulated protein-coding gene",−0.86
same,log2FC,"WWTR1-IT1, downregulated noncoding gene",−1.14
same,ES,[12],−0.521
same,NES,[12],−1.924
same,ES,[13],−0.342
same,NES,[13],−1.914
same,ES,[14],−0.518
same,NES,[14],−2.618
same,ES,[15],−0.457
same,NES,[15],−2.032
same,ES,[16],−0.362
same,NES,[16],−1.929
same,log2FC,"ZNF37A, downregulated protein-coding gene",−0.93
same,log2FC,"ZNF816, downregulated protein-coding gene",−1.58
same,log2FC AC027307.3,[17],1.20
same,log2FC AC068473.5,[17],0.84
same,log2FC AC090826.2,[17],0.90
same,log2FC AC092279.1,[17],0.84
same,log2FC AC106886.2,[17],1.10
same,log2FC AC141586.1,[17],1.01
same,log2FC AC239868.4,[17],0.91
same,log2FC AL049543.1,[17],1.21
same,log2FC AP001065.1,[17],0.95
same,log2FC KRT18P31,[17],0.89
same,log2FC PCBP2P1,[17],0.84
same,log2FC RN7SL16P,[17],1.19
same,log2FC RPS16P5,[17],0.97
same,log2FC SLC2A1-AS1,[17],1.22
same,log2FC SNHG20,[17],1.06
same,log2FC SNORA3B,[17],0.88
same,log2FC SNORA65,[17],1.28
same,log2FC SNORA73B,[17],0.91
same,log2FC SNORA74D,[17],1.76
same,log2FC SNORD15A,[17],0.86
same,log2FC SNORD15B,[17],0.90
same,log2FC SNORD17,[17],1.17
same,log2FC ST7-AS1,[17],0.95
same,log2FC SYPL1P2,[17],0.85
same,log2FC TDRKH-AS1,[17],0.90
same,log2FC ABHD14B,[18],1.28
same,log2FC AC099811.2,[18],1.35
same,log2FC APRT,[18],1.39
same,log2FC COMMD5,[18],1.31
same,log2FC DBP,[18],1.90
same,log2FC DDX28,[18],1.46
same,log2FC DHCR7,[18],1.44
same,log2FC DOLK,[18],1.70
same,log2FC FASN,[18],1.28
same,log2FC H2AFX,[18],1.36
same,log2FC HIST1H1D,[18],1.36
same,log2FC HIST1H2BF,[18],1.63
same,log2FC HIST1H3B,[18],1.82
same,log2FC HIST1H3C,[18],1.45
same,log2FC HIST1H3I,[18],1.28
same,log2FC INSIG1,[18],1.65
same,log2FC MVK,[18],1.37
same,log2FC ORMDL3,[18],1.39
same,log2FC PCYT2,[18],2.03
same,log2FC POP7,[18],1.30
same,log2FC RNF26,[18],1.71
same,log2FC SCD,[18],1.67
same,log2FC SDR39U1,[18],1.67
